Experimental data published in patent US20240132498A1, “CRYSTALLINE FORMS OF 5-(3,4-DIFLUOROBENZYL)-8-((1R,4R)-4-METHYLCYCLOHEXYL)-6,9-DIOXO-2,5,8-TRIAZASPIRO[3.5]NONANE-2-CARBALDEHYDE” (Cytokinetics, Incorporated, priority 2022, published 2024).
Values after ≈ are worked out from the molar mass of the structure shown. Like-named read-outs stand apart in the source and are kept apart here. Blank lines part the entries; values can stand above or below the compound they belong to.

Assays:
CYP2C8 = target: T1, CYP2C8 (Homo sapiens, UniProt P10632); assay: Time-dependent inhibition of CYP450 enzymes in human liver microsomes: CYP2C8; assay type: in vitro ADME
T1 construct: from tissue; host or cells: pooled human liver microsomes
T1 sequence (P10632 1-490): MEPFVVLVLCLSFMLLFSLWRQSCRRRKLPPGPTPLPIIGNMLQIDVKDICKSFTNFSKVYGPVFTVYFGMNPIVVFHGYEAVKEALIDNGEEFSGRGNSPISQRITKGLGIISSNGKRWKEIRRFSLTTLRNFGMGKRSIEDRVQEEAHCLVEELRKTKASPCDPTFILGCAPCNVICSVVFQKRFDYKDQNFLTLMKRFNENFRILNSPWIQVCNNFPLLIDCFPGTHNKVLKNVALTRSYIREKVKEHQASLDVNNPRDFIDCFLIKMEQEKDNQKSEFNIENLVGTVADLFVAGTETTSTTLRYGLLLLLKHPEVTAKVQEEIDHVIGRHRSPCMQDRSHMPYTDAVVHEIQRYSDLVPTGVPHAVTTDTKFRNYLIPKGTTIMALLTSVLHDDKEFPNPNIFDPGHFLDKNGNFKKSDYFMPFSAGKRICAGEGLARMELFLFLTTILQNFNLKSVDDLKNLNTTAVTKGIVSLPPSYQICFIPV
Experimental: An assessment of the time-dependent Inhibitory Potential of the test compounds against Principal Human Cytochrome P450 Isozymes using Human Liver Microsomes was also carried out using standard methods (Grimm et al, Drug Metab. Dispos., Jul; 37(7):1355-70. doi: 10.1124/dmd.109.026716, 2009). Pooled human microsomes and selective CYP probe substrates were used for in vitro assessment of test compounds at 25 and 50 μM as time-dependent inhibitors of […] human hepatic cytochrome P450 isozymes (CYP1A2, 2B6, 2C9, 2C19, 2D6, and 3A4). LC-MS/MS was used to quantify metabolite formation. The inhibition of each P450 enzyme in human liver microsomes was measured as the percentage decrease in the activity of marker metabolite formation as measured by LC-MS/MS compared to non-inhibited controls (=100% activity) at time zero and after 30 minutes incubation. The occurrence of any time dependent inhibition was then expressed as the fold change in enzyme activity at time zero relative to the activity after 30 minutes incubation. The time dependent inhibition for the compound 5-(3,4-difluorobenzyl)-8-((1 r,4r)-4-methylcyclohexyl)-6,9-dioxo-2,5, 8-triazaspiro [3.5]nonane-2-carbaldehyde (Compound 1) against CYP1A2, […], CYP2C8, CYP2C9, CYP2C19, CYP2D6, CYP3A4-M and CYP3A4-T is shown in Table B-12.

[1] = Kinetic solubility of crystalline Form II in solvents; assay type: physicochemical; conditions: for solubility at 4 h: 25 °C, thermodynamic from solid; for Solubility: 25° C., 4 hours
Experimental: The solubility of crystalline Form II was analyzed with 15 types of common solvents. Sufficient amount of Form II was suspended in 0.5 mL solvent for a maximum anticipated concentration of Ca. =10-100 mg/ml of the free Form II. The resulting suspensions were then shaken in a platform shaker at 25° C./ 750 rpm for 4 hours. After equilibration, the appearance was recorded, and the pH of the saturated solution was measured for aqueous samples only. Samples were then centrifuged for 5 minutes at 13.4 krpm before dilution with MeCN except for the samples that were initially diluted in n-heptane, which were then diluted in 2-propanol rather than MeCN.
All diluted samples were then analyzed by HPLC. Samples were further diluted based on appearance and the maximum anticipated concentration […]. All diluted samples were injected at 10, 15 and 20 piL to obtain peak areas within the calibration curve as a diluted concentration of Ca. 0.1 mg/ml was trying to be achieved.
Quantitation was measured by HPLC with reference to a standard solution of approximately 0.15 mg/ml in MeCN. Different volumes of the standard diluted and undiluted sample solutions were injected. The solubility was calculated using the peak areas determined by integration of the peak found at the same retention time as the principal peak in the standard injection.

[2] = Long-term storage stability of the solid (1, 3, 6 months); assay type: physicochemical
Source text: For long-term (1 month or longer) stability experiments, solid material was placed into LDPE bags and sealed in a HDPE container at elevated storage conditions, unless otherwise stated.

(% Activity NADPH T0)/(% Activity NADPH T30) (CYP2C8; CYP2C8, 25 μM): 1.0
(% Activity NADPH T0)/(% Activity NADPH T30) (CYP2C8; CYP2C8, 50 μM): 1.2
activity at 30 min, 25 µM (CYP2C8; human, pooled human liver microsomes, CYP2C8, 25 μM, 30 minutes incubation, read-out: % Activity NADPH T30): 80%
activity at 0 min, 25 µM (CYP2C8; human, pooled human liver microsomes, CYP2C8, 25 μM, time zero, read-out: % Activity NADPH T0): 79%
activity at 30 min, 50 µM (CYP2C8; human, pooled human liver microsomes, CYP2C8, 50 μM, 30 minutes incubation, read-out: % Activity NADPH T30): 79%
activity at 0 min, 50 µM (CYP2C8; human, pooled human liver microsomes, CYP2C8, 50 μM, time zero, read-out: % Activity NADPH T0): 97%
Compound: C[C@H]1CC[C@H](N2CC(=O)N(Cc3ccc(F)c(F)c3)C3(CN(C=O)C3)C2=O)CC1 [Compound 1, 5-(3,4-difluorobenzyl)-8-((1r,4r)-4-methylcyclohexyl)-6,9-dioxo-2,5,8-triazaspiro[3.5]nonane-2-carbaldehyde]

solubility at 4 h ([1]; 2-BuOH, organic solvent or mixture, 2-BuOH, read-out: Average Solubility): 11 mg/mL (≈ 27.1 mM)
solubility at 4 h ([1]; 2-BuOH, organic solvent or mixture, 2-BuOH, single replicate, read-out: Solubility): 11 mg/mL (≈ 27.1 mM)
solubility at 4 h ([1]; 2-Me-THF, organic solvent or mixture, 2-Me-THF, read-out: Average Solubility): 24 mg/mL (≈ 59.2 mM)
solubility at 4 h ([1]; 2-Me-THF, organic solvent or mixture, 2-Me-THF, single replicate, read-out: Solubility): 24 mg/mL (≈ 59.2 mM)
solubility at 4 h ([1]; Acetone, organic solvent or mixture, Acetone, single replicate, read-out: Solubility): > 101 mg/mL
solubility at 4 h ([1]; DI Water, pH 8.7, water, DI Water, final pH 8.7, read-out: Average Solubility): ~0.41 mg/mL (≈ 1.01 mM)
solubility at 4 h ([1]; DI Water, pH 8.7, water, DI Water, final pH 8.7, single replicate, read-out: Solubility): 0.5 mg/mL (≈ 1.23 mM)
Solubility ([1]; DI Water, final pH 8.7, single replicate): 0.31 mg/mL (≈ 0.765 mM)
solubility at 4 h ([1]; DMSO, organic solvent or mixture, DMSO, read-out: Average Solubility): > 100 mg/mL
solubility at 4 h ([1]; DMSO, organic solvent or mixture, DMSO, single replicate, read-out: Solubility): > 101 mg/mL
Solubility ([1]; DMSO, single replicate): >101.2 mg/mL
solubility at 4 h ([1]; EtOH, organic solvent or mixture, EtOH, read-out: Average Solubility): ~24 mg/mL (≈ 59.2 mM)
solubility at 4 h ([1]; EtOH, organic solvent or mixture, EtOH, single replicate, read-out: Solubility): 25 mg/mL (≈ 61.7 mM)
Solubility ([1]; EtOH, single replicate): 23 mg/mL (≈ 56.7 mM)
solubility at 4 h ([1]; IPA, organic solvent or mixture, IPA, read-out: Average Solubility): 9.8 mg/mL (≈ 24.2 mM)
solubility at 4 h ([1]; IPA, organic solvent or mixture, IPA, single replicate, read-out: Solubility): 9.8 mg/mL (≈ 24.2 mM)
solubility at 4 h ([1]; Isopropyl acetate, organic solvent or mixture, Isopropyl acetate, single replicate, read-out: Solubility): 22 mg/mL (≈ 54.3 mM)
solubility at 4 h ([1]; MIBK, organic solvent or mixture, MIBK, read-out: Average Solubility): 39 mg/mL (≈ 96.2 mM)
solubility at 4 h ([1]; MIBK, organic solvent or mixture, MIBK, single replicate, read-out: Solubility): 39 mg/mL (≈ 96.2 mM)
solubility at 4 h ([1]; MeCN, organic solvent or mixture, MeCN, read-out: Average Solubility): > 100 mg/mL
solubility at 4 h ([1]; MeCN, organic solvent or mixture, MeCN, single replicate, read-out: Solubility): > 101 mg/mL
Solubility ([1]; MeCN, single replicate): >100.6 mg/mL
solubility at 4 h ([1]; MeOH, organic solvent or mixture, MeOH, read-out: Average Solubility): > 100 mg/mL
solubility at 4 h ([1]; MeOH, organic solvent or mixture, MeOH, single replicate, read-out: Solubility): > 100 mg/mL
Solubility ([1]; MeOH, single replicate): >100.6 mg/mL
solubility at 4 h ([1]; THF, organic solvent or mixture, THF, read-out: Average Solubility): > 100 mg/mL
solubility at 4 h ([1]; THF, organic solvent or mixture, THF, single replicate, read-out: Solubility): > 102 mg/mL
Solubility ([1]; THF, single replicate): >101.2 mg/mL
solubility at 4 h ([1]; Tert-Butylmethyl ether, organic solvent or mixture, Tert-Butylmethyl ether, read-out: Average Solubility): 1.12 mg/mL (≈ 2.76 mM)
solubility at 4 h ([1]; Tert-Butylmethyl ether, organic solvent or mixture, Tert-Butylmethyl ether, single replicate, read-out: Solubility): 1.12 mg/mL (≈ 2.76 mM)
solubility at 4 h ([1]; Toluene, organic solvent or mixture, Toluene, read-out: Average Solubility): 9.6 mg/mL (≈ 23.7 mM)
solubility at 4 h ([1]; Toluene, organic solvent or mixture, Toluene, single replicate, read-out: Solubility): 9.5 mg/mL (≈ 23.4 mM)
Solubility ([1]; Toluene, single replicate): 9.6 mg/mL (≈ 23.7 mM)
solubility at 4 h ([1]; acetone, organic solvent or mixture, Acetone, read-out: Average Solubility): > 100 mg/mL
solubility at 4 h ([1]; isopropyl acetate, organic solvent or mixture, Isopropyl acetate, read-out: Average Solubility): 22 mg/mL (≈ 54.3 mM)
Assay ([2]; 25° C./60% RH, 1 month): 99.0 % w/w
Purity ([2]; 25° C./60% RH, 1 month): 99.1%
Total Impurities ([2]; 25° C./60% RH, 1 month): 0.92%
Water Content ([2]; 25° C./60% RH, 1 month): 0.02 % w/w
Assay ([2]; 25° C./60% RH, 3 months): 98.8 % w/w
Purity ([2]; 25° C./60% RH, 3 months): 99.1%
Total Impurities ([2]; 25° C./60% RH, 3 months): 0.91%
Water Content ([2]; 25° C./60% RH, 3 months): 0.01 % w/w
Assay ([2]; 25° C./60% RH, 6 months): 99.2 % w/w
Total Impurities ([2]; 25° C./60% RH, 6 months): 0.93%
Water Content ([2]; 25° C./60% RH, 6 months): 0.09 % w/w
XRPD ([2]; 25° C./60% RH, 6 months): Form II
Assay ([2]; 40° C./75% RH, 1 month): 98.6 % w/w
Purity ([2]; 40° C./75% RH, 1 month): 99.1%
Total Impurities ([2]; 40° C./75% RH, 1 month): 0.92%
Water Content ([2]; 40° C./75% RH, 1 month): 0.01 % w/w
Assay ([2]; 40° C./75% RH, 3 months): 97.9 % w/w
Purity ([2]; 40° C./75% RH, 3 months): 99.1%
Total Impurities ([2]; 40° C./75% RH, 3 months): 0.9%
Water Content ([2]; 40° C./75% RH, 3 months): 0.01 % w/w
Assay ([2]; 40° C./75% RH, 6 months): 99.5 % w/w
Total Impurities ([2]; 40° C./75% RH, 6 months): 0.91%
Water Content ([2]; 40° C./75% RH, 6 months): 0.06 % w/w
XRPD ([2]; 40° C./75% RH, 6 months): Form II
Assay ([2]; Initial): 99.1 % w/w
Purity ([2]; Initial): 99.1%
Total Impurities ([2]; Initial): 0.91%
Water Content ([2]; Initial): 0.02 % w/w
XRPD ([2]; Initial): Form II
Compound: C[C@H]1CC[C@H](N2CC(=O)N(Cc3ccc(F)c(F)c3)C3(CN(C=O)C3)C2=O)CC1 [Form II, 5-(3,4-difluorobenzyl)-8-((1r,4r)-4-methylcyclohexyl)-6,9-dioxo-2,5,8-triazaspiro[3.5]nonane-2-carbaldehyde]
